Assay results from US9072732B2 (priority 2010, dated 2015).

How the values were obtained:
[1] = test system: Hep G2 cells; details: niacin 0.5 mM 24 h, then ethanol 48 h in presence or absence of niacin
Source text: Cellular fat accumulation was quantitated by nile red O staining and by measuring fluorescence intensity.

[2] = test system: high-fat-induced NAFLD in rats; assay: High-fat diet-induced NAFLD model in rats; details: 4 weeks

`O=C(O)c1cccnc1` [niacin, nicotinic acid] was tested, and the alcohol-induced fat accumulation [1] was “significantly inhibited”, the serum cholesterol levels ([2]; niacin 0.5% and 1% in high-fat diet, compared to rats fed high-fat diet) was “significantly decreased” and the “body weight of rats” value ([2]; niacin 0.5% or 1% in high-fat diet, compared to high-fat fed rats) was “no effect”. The serum triglyceride levels ([2]; niacin in high-fat diet, compared to rats fed high-fat diet) was “significantly decreased”.
